# Measured values: patent US11571426B2, “Compositions for preventing or treating lupus” (CHONG KUN DANG PHARMACEUTICAL CORP., priority 2017, dated 2023)
# Assays:
# Assay type in all cases: in vivo
# NZB/W F1 female mice [1] = assay: Serum anti-dsDNA antibodies (ELISA) in SLE model mouse
# Description: (§1) 80 NZB/W F1 female mice (four weeks old) were purchased from Jackson Laboratory and maintained in an SPF breeding room with five mice per cage. Their weight and urine protein were measured at 24 weeks after birth (right before administration), and then all the animals except those having too much urine protein were divided into groups as shown in a table 2 below such that the urine protein and weight might be evenly distributed among the groups.
# (§2) Then, the mice were administered as described in the table 2 once a day for about 19 weeks from 24 weeks after birth to 42 weeks after birth.
# The fresh urine of mice was collected before and after administration every two weeks, while blood collection was performed before and after administration every four weeks. The serum was prepared by centrifugation of the collected blood and then kept at −70° C.
# To identify if the pharmaceutical composition according to the present invention may reduce an increased concentration of anti-dsDNA antibodies shown in the SLE model animal, a concentration of anti-dsDNA antibodies in mouse serum was measured by means of a mouse anti-dsDNA ELISA (enzyme-linked immunosorbent assay) kit (Shibayagi).
# NZB/W F1 female mice [2] = assay: Renal histopathological evaluation in SLE model mouse
# Description: as §1, §2
# To identify an effect of the inventive pharmaceutical composition on kidney in the SLE disease model, a histopathological evaluation was performed.
# First of all, a half of a left kidney of a mouse collected during the autopsy was fixed with 10% neutral buffered formalin and prepared as a paraffin block. Then, a histopathological evaluation was performed by means of hematoxylin and eosin staining (H&E, BBC Biochemical, Mount Vernon, Wash., USA), periodic acid-schiff staining (PAS, BBC Biochemical) and Masson's trichrome staining (BBC Biochemical).
# NZB/W F1 female mice [3] = assay: Serum CXCL10 and CCL2 in SLE disease mouse; details: 36 weeks old
# Description: as §1, §2
# Meanwhile, when a level of CXCL10 (IFN-inducible protein 10, IP-10) and CCL2 (MCP-1) in serum was measured at 36 weeks old, it was identified that the level of CXCL10 in serum was decreased in all the experimental groups, and the level of CCL2 in serum was decreased in the 50 mg/kg dosed group (FIG. 14).
structure (smiles),measurement,setting,value
"O=C(NO)c1ccc(CN(C(=O)N2CCOCC2)c2cccc(C(F)(F)F)c2)cc1 [Compound 374, N-(4-(hydroxycarbamoyl)benzyl)-N-(3-(trifluoromethyl)phenyl)morpholine-4-carboxamide]",decrease of serum concentration of anti-dsDNA antibodies,NZB/W F1 female mice [1]; 50 mg/kg dosed group vs negative control,two-fold
same,serum concentration of anti-dsDNA antibodies,"NZB/W F1 female mice [1]; after 28 week after birth, all the experimental groups, vs negative control",tended to decrease more
same,infiltration of inflammatory cells in kidney (marks 0-4),NZB/W F1 female mice [2]; 30 and 50 mg/kg dosed groups,remarkably excellent effect of reducing the infiltration of inflammatory cells
same,degree of infiltration of inflammatory cells in kidney (marks 0-4),NZB/W F1 female mice [2]; experimental groups,decreased
same,level of CCL2 in serum,NZB/W F1 female mice [3]; 50 mg/kg dosed group,decreased
same,level of CXCL10 in serum,NZB/W F1 female mice [3]; all the experimental groups,decreased
